# According to ChEMBL document CHEMBL1201862, “PubChem BioAssay data set” (2004):
# The source made the active and inactive calls.
# Legend:
# Exodeoxyribonuclease V = biological target: T1, Exodeoxyribonuclease V (Escherichia coli (strain K12), UniProt P04993+P07648+P08394); test: RecBCD inhibition via phage-restricted bacterial growth – absorbance, V66 E. coli, mutant T4 phage, counter-screen for AddAB inhibitor project, dose response (AID 492957); format: functional, cell-based, Escherichia coli str. K-12 substr. MG1655
# T1 sequence (P04993 whole entry): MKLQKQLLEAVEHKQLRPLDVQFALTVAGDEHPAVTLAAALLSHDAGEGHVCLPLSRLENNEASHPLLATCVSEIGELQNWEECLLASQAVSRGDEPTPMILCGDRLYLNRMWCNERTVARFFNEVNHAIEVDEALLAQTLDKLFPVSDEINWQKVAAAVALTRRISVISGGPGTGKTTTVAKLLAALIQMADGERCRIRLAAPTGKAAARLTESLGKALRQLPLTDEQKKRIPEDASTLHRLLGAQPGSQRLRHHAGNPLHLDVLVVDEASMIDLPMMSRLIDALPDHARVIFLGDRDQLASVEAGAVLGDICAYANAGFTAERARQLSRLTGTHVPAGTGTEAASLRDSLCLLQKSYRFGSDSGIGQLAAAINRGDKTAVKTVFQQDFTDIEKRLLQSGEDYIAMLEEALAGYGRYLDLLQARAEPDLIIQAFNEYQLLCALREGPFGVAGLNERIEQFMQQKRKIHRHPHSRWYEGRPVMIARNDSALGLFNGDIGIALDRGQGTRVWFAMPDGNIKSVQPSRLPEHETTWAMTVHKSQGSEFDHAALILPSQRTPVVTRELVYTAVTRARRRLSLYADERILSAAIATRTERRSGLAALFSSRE
# T1 sequence (P07648 whole entry): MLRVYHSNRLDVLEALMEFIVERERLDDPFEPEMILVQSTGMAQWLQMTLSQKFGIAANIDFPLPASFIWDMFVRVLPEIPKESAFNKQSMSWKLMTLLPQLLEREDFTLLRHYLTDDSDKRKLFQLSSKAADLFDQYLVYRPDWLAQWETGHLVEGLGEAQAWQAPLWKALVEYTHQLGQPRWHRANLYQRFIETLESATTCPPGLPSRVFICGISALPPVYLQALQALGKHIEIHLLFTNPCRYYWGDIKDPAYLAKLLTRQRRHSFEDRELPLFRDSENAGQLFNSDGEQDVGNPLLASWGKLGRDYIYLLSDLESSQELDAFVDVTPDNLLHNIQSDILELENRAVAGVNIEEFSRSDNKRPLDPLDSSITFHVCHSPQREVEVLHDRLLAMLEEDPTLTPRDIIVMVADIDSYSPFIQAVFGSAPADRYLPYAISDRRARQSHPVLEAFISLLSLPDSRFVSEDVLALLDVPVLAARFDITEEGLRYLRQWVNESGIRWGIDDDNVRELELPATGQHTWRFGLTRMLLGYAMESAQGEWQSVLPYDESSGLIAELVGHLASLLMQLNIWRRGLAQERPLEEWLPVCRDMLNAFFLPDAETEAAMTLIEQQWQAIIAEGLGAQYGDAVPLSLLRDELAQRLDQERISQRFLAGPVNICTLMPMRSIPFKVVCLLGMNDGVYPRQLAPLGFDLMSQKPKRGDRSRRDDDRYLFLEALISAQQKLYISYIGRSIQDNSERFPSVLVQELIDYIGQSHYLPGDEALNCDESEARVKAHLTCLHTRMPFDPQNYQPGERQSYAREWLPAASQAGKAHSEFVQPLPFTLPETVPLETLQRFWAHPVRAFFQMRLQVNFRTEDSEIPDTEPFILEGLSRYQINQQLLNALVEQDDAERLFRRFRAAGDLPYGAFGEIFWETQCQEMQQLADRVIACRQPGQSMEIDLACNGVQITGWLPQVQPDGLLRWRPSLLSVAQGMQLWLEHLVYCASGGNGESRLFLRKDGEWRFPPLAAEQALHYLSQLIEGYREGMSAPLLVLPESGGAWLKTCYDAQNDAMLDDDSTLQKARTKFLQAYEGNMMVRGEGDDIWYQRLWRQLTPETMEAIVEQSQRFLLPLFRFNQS
# T1 sequence (P08394 whole entry): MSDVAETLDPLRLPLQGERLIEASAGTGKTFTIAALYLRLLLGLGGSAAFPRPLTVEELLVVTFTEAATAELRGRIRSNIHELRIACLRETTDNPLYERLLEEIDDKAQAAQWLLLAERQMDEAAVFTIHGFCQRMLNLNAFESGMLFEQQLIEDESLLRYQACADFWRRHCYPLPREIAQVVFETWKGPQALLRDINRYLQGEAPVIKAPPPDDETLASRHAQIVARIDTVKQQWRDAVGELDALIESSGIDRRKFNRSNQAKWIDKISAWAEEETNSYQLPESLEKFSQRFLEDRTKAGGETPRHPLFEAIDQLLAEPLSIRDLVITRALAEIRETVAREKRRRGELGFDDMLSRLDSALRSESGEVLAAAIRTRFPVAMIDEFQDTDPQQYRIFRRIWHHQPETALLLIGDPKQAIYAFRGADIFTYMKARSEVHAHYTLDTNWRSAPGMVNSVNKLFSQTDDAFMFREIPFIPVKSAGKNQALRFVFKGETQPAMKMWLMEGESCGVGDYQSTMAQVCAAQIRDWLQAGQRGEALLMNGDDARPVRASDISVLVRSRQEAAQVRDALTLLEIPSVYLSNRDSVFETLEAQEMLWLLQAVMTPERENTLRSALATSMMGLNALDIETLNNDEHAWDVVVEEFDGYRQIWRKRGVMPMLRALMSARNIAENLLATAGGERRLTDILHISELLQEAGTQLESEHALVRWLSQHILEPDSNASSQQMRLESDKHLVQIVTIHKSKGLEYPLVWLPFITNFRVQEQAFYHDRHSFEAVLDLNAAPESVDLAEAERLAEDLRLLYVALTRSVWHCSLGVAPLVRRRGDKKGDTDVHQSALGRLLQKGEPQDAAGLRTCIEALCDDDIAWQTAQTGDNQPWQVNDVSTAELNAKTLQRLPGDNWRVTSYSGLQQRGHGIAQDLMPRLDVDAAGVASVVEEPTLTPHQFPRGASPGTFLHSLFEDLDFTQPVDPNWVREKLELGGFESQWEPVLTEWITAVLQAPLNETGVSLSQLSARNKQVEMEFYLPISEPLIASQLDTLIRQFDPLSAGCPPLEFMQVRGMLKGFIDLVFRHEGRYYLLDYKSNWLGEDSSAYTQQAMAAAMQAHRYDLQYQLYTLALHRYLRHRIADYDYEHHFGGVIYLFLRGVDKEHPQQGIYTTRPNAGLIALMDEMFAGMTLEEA
# [1] = fluconazole-exposed Candida albicans growth modulators – fluorescence, retest, confirmation (AID 2467); format: functional, cell-based
# [2] = NIH-3T3 fibroblast cytotoxicity, dose response, cytotoxicity control, cell-based, fluorescence, Alamar Blue, secondary assay (AID 2327); format: functional;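 note: NIH-3T3 mouse fibroblasts cultured with fluconazole at 8 µg/mL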
# [3] = Counterscreen for AddAB inhibitors: absorbance-based bacterial cell-based high throughput dose response assay for inhibitors of bacterial viability. [Related pubchem assays (depositor defined):AID435030, AID449728, AID449731, AID488942, AID488955, AID488956]; format: functional
# [4] = Trypanosoma cruzi growth suppression in host cells – NIH3T3 host cells, beta-gal luminescence, confirmation (AID 2044); format: functional, cell-based;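 note: intracellular parasites grown in NIH/3T3 mouse fibroblasts as host cells; luminescent beta-galactosidase reporter signal from transgenic T. cruzi replicating inside host cells; inhibitors lower the luminescence signal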
# [5] = NIH3T3 cell viability loss – ATP luminescence, mouse fibroblasts, counter-screen, dose response (AID 2010); format: functional, cell-based;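 note: cells exposed to compound for about 90 hours before reading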
# [6] = biological target: Intestinal-type alkaline phosphatase (Homo sapiens, UniProt P09923); test: inhibition of human intestinal alkaline phosphatase – biochemical, dose response (AID 488876); format: functional
# Intestinal-type alkaline phosphatase (Homo sapiens, UniProt P09923), sequence (P09923 whole entry): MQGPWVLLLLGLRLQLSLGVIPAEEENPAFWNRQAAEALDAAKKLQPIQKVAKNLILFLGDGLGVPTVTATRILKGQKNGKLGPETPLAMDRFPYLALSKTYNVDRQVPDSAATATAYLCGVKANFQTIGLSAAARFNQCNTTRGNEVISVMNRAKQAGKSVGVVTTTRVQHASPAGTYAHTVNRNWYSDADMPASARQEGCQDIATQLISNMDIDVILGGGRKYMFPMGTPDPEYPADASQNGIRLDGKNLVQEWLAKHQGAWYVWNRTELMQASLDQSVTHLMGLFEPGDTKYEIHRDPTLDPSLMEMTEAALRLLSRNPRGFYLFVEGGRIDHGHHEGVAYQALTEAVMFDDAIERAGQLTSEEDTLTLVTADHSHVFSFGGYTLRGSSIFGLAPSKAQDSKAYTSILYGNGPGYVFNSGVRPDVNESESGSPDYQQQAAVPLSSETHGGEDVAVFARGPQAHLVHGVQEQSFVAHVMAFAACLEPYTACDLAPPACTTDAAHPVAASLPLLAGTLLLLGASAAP
# [7] = biological target: T2, Alkaline phosphatase, tissue-nonspecific isozyme (Homo sapiens, UniProt P05186); test: TNAP enzyme inhibition by screening hits, dose response, selectivity assay for mouse IAP inhibitor project, biochemical, human TNAP, uHTS hits (AID 488906); format: functional
# T2 sequence (P05186 whole entry): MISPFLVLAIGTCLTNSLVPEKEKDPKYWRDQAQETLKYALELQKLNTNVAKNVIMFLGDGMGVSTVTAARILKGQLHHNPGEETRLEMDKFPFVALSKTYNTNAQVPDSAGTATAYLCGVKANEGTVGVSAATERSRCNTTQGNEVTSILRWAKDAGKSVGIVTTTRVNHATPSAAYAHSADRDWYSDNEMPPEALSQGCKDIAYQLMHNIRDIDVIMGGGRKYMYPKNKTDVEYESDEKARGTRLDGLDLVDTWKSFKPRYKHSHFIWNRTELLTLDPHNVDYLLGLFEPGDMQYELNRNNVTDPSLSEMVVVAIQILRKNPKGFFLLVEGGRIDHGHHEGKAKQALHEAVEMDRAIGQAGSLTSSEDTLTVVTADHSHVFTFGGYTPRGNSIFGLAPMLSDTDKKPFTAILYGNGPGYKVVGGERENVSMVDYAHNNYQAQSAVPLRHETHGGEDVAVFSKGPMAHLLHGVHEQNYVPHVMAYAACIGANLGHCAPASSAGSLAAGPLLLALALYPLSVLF
# [8] = biological target: Intestinal-type alkaline phosphatase (Mus musculus, UniProt P24822); test: PubChem AID 488785; format: functional
# Intestinal-type alkaline phosphatase (Mus musculus, UniProt P24822), sequence (P24822 whole entry): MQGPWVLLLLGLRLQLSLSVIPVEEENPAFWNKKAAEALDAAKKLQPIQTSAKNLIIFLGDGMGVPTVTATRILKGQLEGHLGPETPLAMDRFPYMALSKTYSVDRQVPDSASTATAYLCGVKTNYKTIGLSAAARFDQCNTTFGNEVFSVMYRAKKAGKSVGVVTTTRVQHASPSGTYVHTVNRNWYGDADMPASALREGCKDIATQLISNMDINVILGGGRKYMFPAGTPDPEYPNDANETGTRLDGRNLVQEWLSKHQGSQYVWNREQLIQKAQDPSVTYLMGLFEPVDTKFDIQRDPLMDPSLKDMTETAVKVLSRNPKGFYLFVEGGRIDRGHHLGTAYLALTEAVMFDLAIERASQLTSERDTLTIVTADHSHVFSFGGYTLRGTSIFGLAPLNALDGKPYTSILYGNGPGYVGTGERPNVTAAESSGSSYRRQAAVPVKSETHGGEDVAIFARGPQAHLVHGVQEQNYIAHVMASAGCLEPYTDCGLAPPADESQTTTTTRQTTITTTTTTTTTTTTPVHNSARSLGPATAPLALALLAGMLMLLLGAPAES
# [9] = biological target: T3, E3 ubiquitin-protein ligase XIAP (Homo sapiens, UniProt P98170); test: small molecules displacing peptide from XIAP – biochemical, IAP family, fluorescence polarization (AID 1018); format: functional
# T3 sequence (P98170 whole entry): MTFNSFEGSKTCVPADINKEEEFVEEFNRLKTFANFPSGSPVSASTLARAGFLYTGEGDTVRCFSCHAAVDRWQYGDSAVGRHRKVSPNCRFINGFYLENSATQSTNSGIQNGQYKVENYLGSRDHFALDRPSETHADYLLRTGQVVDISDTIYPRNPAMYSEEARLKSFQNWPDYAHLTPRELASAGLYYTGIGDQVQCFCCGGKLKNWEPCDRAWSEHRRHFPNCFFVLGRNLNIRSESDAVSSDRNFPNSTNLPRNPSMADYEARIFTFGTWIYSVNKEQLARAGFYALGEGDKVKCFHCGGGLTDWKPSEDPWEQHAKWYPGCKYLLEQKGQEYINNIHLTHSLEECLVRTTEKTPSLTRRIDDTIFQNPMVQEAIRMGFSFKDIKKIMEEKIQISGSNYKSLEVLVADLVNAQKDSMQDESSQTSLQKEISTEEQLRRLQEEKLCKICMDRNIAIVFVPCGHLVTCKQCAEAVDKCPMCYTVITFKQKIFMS
# [10] = biological target: T3, E3 ubiquitin-protein ligase XIAP; test: Counter Screen using XIAP-Bir3 for Chemical Antagonists of Bir1/2 domains of IAP-family anti-apoptotic proteins. [Related pubchem assays (depositor defined):AID1018, AID1449, AID1514, AID1638, AID1749, AID1750, AID488957, AID488963]
# HEK293 [11] = test: cells; format: functional, cell-based; conditions: Homo sapiens
# HEK293 [12] = test: inhibition of NOD1-driven NF-kB reporter – cell-based, luminescence, uHTS, primary screen (AID 1578); format: functional; conditions: Homo sapiens
# Streptococcus = test: GAS UMAA2166 growth inhibition – luminescence, BacTiterGlo, counter-screen for streptokinase expression inhibitor project, dose response (AID 1915); format: functional, organism-based;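 note: potency for reduction of bacterial viability or growth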
# HEK293 [13] = test: cells; format: functional, cell-based; conditions: Homo sapiens; remark: listed apart in the source
# HEK293 [14] = test: cells; conditions: Homo sapiens
# [15] = blockers of CRF-binding protein–CRF-R2 complex – cell-based, uHTS hits, 384-well, dose response (AID 651639); format: functional, Homo sapiens; conditions: read-out: IC50_Mean
# HEK293 [16] = test: NOD2 signaling inhibitors in MDP-stimulated cells, cell-based, uHTS, luminescence (AID 2001); format: functional; conditions: Homo sapiens
# [17] = system: Streptococcus sp. 'group A'; test: Streptococcus pyogenes SK(-)GAS viability under kanamycin – luminescence, BacTiterGlo, confirmation, counter-screen for streptokinase expression inhibitor project, dose response (AID 1900); format: functional, organism-based
# [18] = alpha-synuclein stem-loop luciferase translation blockers – H4 neuroglioma cells, luminescence, confirmation (AID 1988); format: functional, cell-based
# [19] = Luminescence Cell-Based Dose Response HTS to Identify Inhibitors of 5'UTR Stem-Loop Driven Prion Protein mRNA Translation in H4 Neuroglioblastoma Cells. [Related pubchem assays: 1827 (Project Summary), 1813 (Primary HTS)]; format: functional
# [20] = luciferase reporter signal suppression in cells – H4 neuroglioma cells, luminescence, dose response (AID 1990); format: functional, cell-based
# cells [21] = format: functional, cell-based
# [22] = biological target: Heat shock protein HSP 90-alpha (Homo sapiens, UniProt P07900); format: functional, organism-based
# INS1 = test: INS-1E survival protection against cytokine death – cell-based, luminescence, retest, dose response (AID 449756); format: functional; conditions: Rattus norvegicus;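 note: cell death triggered by IL-1 beta plus TNF-alpha plus IFN-gamma mixture; protective hits raise ATP signal compared with cytokine alone wells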
# [23] = HGIII-sPLA2 enzyme inhibition potency – biochemical, QFRET, IC50, dose response (AID 743457);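 note: green fluorescence rise as the enzyme cleaves BODIPY PC-A2 in liposomes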
# cells [24] = format: functional, cell-based; remark: listed apart in the source
smiles,measurement,setting,value
C=CCc1cccc(/C=N/NC(=O)CNc2ccccc2OC)c1O,IC50,Exodeoxyribonuclease V,> 119 µM (inactive)
same,EC50,[1],> 38 µM (not active)
same,EC50,[2],> 160 µM (inactive)
same,IC50,[3],> 119 µM (inactive)
same,EC50,[4],2.01 µM (active)
same,EC50,[5],7.37 µM (active)
O=C(NCCCCc1ccccc1)NC[C@@H]1CC[C@@H](Cc2ccc(-c3ccccc3)cc2)O1,IC50,[6],2.1 µM (active)
same,IC50,[7],15.6 µM (active)
same,IC50,[8],2.6 µM (active)
O=C(Nc1cccc(-c2cccc(Cl)c2)c1)C1CCN(C2CCC2)CC1,IC50,[6],8.64 µM (active)
same,IC50,[7],11.8 µM (active)
same,IC50,[8],9.39 µM (active)
CCN(CC)S(=O)(=O)c1cccc(C(=O)c2c(C)cc3ccccn23)c1,IC50,[9],> 100 µM (not active)
same,IC50,[10],> 100 µM (inactive)
CC(C)C(c1nnnn1C(C)(C)C)N1CCC(Cc2ccccc2)CC1 (centres undefined),IC50,[9],> 100 µM (not active)
same,IC50,[10],> 100 µM (inactive)
Cc1ccc(SCc2cc(O)nc(SCC(=O)Nc3cc(Cl)ccc3Cl)n2)cc1,IC50,HEK293 [11],> 20 µM (inactive)
same,EC50,HEK293 [12],6.75 µM (active)
same,EC50,Streptococcus,38.5 µM (active)
same,IC50,HEK293 [13],> 20 µM (inactive)
same,IC50,HEK293 [14],> 20 µM (inactive)
same,IC50,[15],> 20 µM (inactive)
same,IC50,HEK293 [16],9.47 µM (inactive)
same,EC50,[17],9.13 µM (active)
O=C(c1cc(-n2cnnc2)ccc1Cl)N1CCN(c2nc(-c3ccccc3)cs2)CC1,EC50,[18],> 120 µM (not active)
same,IC50,[9],> 100 µM (not active)
same,EC50,[19],15.1 µM (active)
same,EC50,[20],> 30 µM (not active)
same,IC50,[10],> 100 µM (inactive)
CCCCC(=O)NC(c1cccs1)c1cc(Cl)c2cccnc2c1O (centres undefined),IC50,Exodeoxyribonuclease V,> 119 µM (inactive)
same,EC50,cells [21],> 350 µM (not active)
same,AC50,[22],3.6 µM (active)
same,AC50,INS1,1.19 µM (active)
same,IC50,[3],> 119 µM (inactive)
same,IC50,[23],> 122 µM (inactive)
same,EC50,cells [24],57.5 µM (active)
Cc1ccc(CN2C3CCCC2CC(NC(=O)Nc2cccc(F)c2)C3)cc1 (centres undefined),IC50,[6],> 100 µM (inactive)
same,IC50,[7],63.3 µM (active)
same,IC50,[8],9.9 µM (active)
